Results taken from article PMC9268448, “Synthesis of 4,5-Dihydro-1H-[1,2]dithiolo[3,4-c]quinoline-1-thione Derivatives and Their Application as Protein Kinase Inhibitors” (Molecules, 2022).

How the values were obtained:
JAK2 = JAK2 (Homo sapiens, UniProt O60674); assay: Kinase inhibition ELISA, JAK2; format: biochemical; settings: 10 μM test compound, 150 μM ATP
Experimental: (§1) Study of inhibitory activity. The kinase activity was determined by enzyme-linked immunosorbent assay (ELISA) in polypropylene plates (Costar, 3363) in reaction buffer (20 mM HEPES, pH 7.5, 15 mM MgCl2, 2 mM DTT, 0.2 mM Na3VO4, 0.005% Triton X-100) for 60 min at 30 °C with vigorous stirring. The final concentration of the reaction components: 0.05 μg mL^–1 of the corresponding kinase, 5 nM Histon H3 biotinylated substrate (1–21) (Anaspec, 61702), 150 μM ATP (Sigma, A6419), 10 μM test compound, 5% DMSO. The enzymatic reaction was stopped with a buffer containing 20 mM HEPES (Sigma, H4034), pH 7.5, and 150 mM EDTA (Sigma, E5513). Further, to detect the phosphorylated substrate, the reaction mixture was transferred to pre-prepared plates (Nunc, 468667) coated with neutravidin (1 ng per well; Pierce, 31000) and treated with bovine serum albumin (BSA) to block non-specific binding sites. Incubation was carried out for 1 h at room temperature. After washing the plates three times with phosphate buffer saline (PBS, pH 7.4) with Tween-20, they were incubated sequentially with anti-phospho-Histon H3 antibodies (0.3 ng μL^–1; Millipore, 04-746) and with specific antibodies conjugated with an enzyme-label (peroxidase) Anti-rabbit IgG, HRP-linked Antibody (titer 1/5000; Cell Signaling, 7074). After completion of each incubation step (60 min at room temperature (~20 °C) and continuous stirring), the plates were washed three times from unbound antibody molecules with a PBS solution with Tween-20 and 100 μL of substrate (3.3′,5.5′-tetramethylbenzidine (TMB) dihydrochloride, Sigma, T8768) prepared according to the manufacturer’s instructions. Before measuring the optical density, the reaction was stopped using 0.5 M Н2SO4. The optical density of the solution was determined at λ = 450 nm using a tablet spectrophotometer (TECAN Safire). The data obtained were processed and imported into the HTSCalc program.

cRAF[Y340D][Y341D] = cRAF[Y340D][Y341D] (Homo sapiens, UniProt P04049, Y340D/Y341D); assay: Kinase inhibition ELISA, cRAF[Y340D][Y341D]; format: biochemical; settings: for inhibition at 10 µM: 10 μM test compound, 150 μM ATP; for IC50: ten concentration points
Chain of cRAF[Y340D][Y341D] (P04049 whole entry Y340D/Y341D): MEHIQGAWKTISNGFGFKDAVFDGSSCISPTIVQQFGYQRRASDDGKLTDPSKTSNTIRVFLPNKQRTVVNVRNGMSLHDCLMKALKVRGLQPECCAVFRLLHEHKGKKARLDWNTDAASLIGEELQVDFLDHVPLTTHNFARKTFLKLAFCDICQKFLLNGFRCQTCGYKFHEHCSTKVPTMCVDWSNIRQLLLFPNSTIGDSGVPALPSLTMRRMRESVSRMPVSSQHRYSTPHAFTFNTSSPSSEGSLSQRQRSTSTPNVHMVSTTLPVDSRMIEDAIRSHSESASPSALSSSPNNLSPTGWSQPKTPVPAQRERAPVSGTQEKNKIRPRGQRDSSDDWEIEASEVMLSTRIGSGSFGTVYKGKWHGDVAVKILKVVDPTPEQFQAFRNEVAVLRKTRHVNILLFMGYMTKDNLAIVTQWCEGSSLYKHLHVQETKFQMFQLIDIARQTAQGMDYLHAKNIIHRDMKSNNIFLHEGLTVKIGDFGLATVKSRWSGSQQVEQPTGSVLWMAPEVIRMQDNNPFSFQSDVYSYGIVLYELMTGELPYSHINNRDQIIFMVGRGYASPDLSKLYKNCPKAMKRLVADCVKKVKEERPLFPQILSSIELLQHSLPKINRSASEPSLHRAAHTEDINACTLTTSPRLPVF
Experimental: (§2) Study of inhibitory activity. […] The enzymatic reaction was stopped with a buffer containing 20 mM HEPES (Sigma, H4034), pH 7.5, and 150 mM EDTA (Sigma, E5513). […] Incubation was carried out for 1 h at room temperature. […] After completion of each incubation step (60 min at room temperature (~20 °C) and continuous stirring), the plates were washed three times from unbound antibody molecules with a PBS solution with Tween-20 and 100 μL of substrate (3.3′,5.5′-tetramethylbenzidine (TMB) dihydrochloride, Sigma, T8768) prepared according to the manufacturer’s instructions. Before measuring the optical density, the reaction was stopped using 0.5 M Н2SO4. The optical density of the solution was determined at λ = 450 nm using a tablet spectrophotometer (TECAN Safire). The data obtained were processed and imported into the HTSCalc program.
(§3) The data were analyzed using GraphPad Prism software (v. 3.1).

NPM1-ALK = biological target: T1, NPM1-ALK (Homo sapiens, UniProt Q9UM73); assay: Kinase inhibition ELISA, NPM1-ALK; format: biochemical; settings: for inhibition at 10 µM: 10 μM test compound, 150 μM ATP; for IC50: ten concentration points
T1 construct: NPM1 (nucleophosmin, P06748) fusion partner
T1 sequence (Q9UM73 whole entry, looked up, the tested form may be a part): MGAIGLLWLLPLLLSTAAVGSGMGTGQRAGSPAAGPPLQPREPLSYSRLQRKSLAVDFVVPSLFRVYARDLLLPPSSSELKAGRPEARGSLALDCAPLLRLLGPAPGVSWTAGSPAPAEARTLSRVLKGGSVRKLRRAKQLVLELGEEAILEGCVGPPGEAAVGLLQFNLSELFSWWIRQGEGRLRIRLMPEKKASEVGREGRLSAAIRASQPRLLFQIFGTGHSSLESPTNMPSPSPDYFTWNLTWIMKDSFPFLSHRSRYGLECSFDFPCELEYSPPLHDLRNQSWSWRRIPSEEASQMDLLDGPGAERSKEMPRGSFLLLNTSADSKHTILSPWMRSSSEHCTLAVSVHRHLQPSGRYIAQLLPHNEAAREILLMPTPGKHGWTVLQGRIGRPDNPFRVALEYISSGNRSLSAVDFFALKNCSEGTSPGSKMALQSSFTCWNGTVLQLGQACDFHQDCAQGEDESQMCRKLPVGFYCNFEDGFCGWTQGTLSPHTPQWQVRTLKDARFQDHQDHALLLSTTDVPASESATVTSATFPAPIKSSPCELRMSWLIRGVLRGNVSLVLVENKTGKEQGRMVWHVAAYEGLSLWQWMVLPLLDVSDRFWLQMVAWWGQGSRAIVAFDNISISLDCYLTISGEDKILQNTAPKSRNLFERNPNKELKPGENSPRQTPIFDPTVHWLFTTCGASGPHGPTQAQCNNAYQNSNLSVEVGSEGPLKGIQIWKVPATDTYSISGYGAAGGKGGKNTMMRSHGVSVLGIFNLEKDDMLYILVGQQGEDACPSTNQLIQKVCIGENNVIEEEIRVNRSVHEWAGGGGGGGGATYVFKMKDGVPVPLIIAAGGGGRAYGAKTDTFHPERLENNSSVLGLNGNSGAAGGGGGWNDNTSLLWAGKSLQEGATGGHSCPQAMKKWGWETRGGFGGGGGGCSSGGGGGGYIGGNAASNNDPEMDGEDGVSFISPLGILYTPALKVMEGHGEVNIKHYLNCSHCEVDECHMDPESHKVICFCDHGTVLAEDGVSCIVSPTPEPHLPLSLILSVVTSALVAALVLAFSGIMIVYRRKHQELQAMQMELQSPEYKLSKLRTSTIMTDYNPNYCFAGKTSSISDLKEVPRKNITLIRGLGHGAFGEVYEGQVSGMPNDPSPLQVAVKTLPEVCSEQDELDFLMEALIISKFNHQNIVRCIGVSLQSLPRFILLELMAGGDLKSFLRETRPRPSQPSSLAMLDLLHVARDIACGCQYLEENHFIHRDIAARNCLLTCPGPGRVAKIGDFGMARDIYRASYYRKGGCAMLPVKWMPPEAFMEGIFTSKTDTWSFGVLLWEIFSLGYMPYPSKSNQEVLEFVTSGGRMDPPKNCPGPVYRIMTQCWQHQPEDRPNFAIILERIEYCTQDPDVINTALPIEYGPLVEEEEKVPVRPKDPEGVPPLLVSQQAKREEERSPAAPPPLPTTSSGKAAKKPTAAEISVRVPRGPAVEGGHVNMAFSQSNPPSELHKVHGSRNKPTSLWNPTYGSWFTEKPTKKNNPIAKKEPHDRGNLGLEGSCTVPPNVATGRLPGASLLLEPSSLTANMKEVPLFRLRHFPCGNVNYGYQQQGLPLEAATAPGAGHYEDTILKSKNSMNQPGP
Experimental: as §2, §3

JAK3 = biological target: T2, JAK3 (Homo sapiens, UniProt P52333); assay: Kinase inhibition ELISA, JAK3; format: biochemical; settings: for inhibition at 10 µM: 10 μM test compound, 150 μM ATP; for IC50: ten concentration points
T2 sequence (P52333 1-1124): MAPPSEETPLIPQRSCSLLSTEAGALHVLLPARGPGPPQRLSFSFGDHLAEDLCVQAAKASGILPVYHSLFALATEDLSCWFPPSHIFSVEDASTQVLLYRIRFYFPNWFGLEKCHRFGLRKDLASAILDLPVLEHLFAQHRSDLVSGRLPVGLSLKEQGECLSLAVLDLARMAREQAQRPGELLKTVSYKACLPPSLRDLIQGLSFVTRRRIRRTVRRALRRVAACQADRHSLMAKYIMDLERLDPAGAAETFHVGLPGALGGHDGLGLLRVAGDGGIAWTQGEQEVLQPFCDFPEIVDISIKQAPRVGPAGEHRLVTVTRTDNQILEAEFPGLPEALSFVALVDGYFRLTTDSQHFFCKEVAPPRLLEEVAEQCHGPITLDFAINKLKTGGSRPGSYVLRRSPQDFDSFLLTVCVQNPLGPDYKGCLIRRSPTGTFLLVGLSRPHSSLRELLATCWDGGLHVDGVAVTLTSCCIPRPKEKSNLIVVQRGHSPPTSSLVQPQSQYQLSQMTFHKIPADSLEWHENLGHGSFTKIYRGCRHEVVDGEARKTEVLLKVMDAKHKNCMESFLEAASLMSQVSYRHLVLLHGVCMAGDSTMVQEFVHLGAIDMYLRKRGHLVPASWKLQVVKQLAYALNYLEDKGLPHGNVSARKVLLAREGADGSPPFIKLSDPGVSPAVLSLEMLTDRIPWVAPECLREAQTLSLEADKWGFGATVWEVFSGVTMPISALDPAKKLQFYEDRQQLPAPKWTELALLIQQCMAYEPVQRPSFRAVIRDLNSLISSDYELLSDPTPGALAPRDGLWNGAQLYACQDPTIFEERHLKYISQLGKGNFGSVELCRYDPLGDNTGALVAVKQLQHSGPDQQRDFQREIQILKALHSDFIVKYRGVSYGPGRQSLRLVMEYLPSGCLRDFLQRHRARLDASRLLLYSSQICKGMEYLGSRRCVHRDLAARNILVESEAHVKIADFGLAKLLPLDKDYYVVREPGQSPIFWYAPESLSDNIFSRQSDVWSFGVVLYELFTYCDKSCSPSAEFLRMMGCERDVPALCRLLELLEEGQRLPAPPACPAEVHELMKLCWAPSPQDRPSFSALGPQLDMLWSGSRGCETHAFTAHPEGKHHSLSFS
Experimental: as §1
(§4) For compounds 2a–c,q, the IC50 value (μmol L^–1) was calculated from ten concentration points (in triplicate dilution) obtained twice. The data were analyzed using GraphPad Prism software (v. 3.1).

EGFR[L858R][T790] = EGFR[L858R][T790] (Homo sapiens, UniProt P00533, L858R/T790M); assay: Kinase inhibition ELISA, EGFR[L858R][T790]; format: biochemical; settings: 10 μM test compound, 150 μM ATP
Chain of EGFR[L858R][T790] (P00533 669-1210 T790M/L858R limits assumed): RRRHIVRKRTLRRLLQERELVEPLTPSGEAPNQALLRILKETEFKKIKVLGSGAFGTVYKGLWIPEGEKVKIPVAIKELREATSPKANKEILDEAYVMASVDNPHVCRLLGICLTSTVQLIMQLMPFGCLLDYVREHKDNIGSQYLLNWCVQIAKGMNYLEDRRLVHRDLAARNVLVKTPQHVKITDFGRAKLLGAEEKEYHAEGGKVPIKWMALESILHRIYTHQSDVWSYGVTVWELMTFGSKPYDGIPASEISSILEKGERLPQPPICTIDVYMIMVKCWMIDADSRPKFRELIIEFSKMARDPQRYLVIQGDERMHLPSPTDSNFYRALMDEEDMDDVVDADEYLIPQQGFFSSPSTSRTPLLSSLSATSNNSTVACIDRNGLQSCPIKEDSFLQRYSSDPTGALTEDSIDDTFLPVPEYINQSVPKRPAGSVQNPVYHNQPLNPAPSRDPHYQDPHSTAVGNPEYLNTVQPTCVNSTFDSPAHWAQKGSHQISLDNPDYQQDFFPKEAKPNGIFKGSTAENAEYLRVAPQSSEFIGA
Experimental: as §1

ALK = ALK (Homo sapiens, UniProt Q9UM73); assay: Kinase inhibition ELISA, ALK; format: biochemical; settings: 10 μM test compound, 150 μM ATP
Experimental: as §1

[1] = system: protein kinases NPM1-ALK, ALK, EGFR[L858R][T790], cRAF[Y340D][Y341D], JAK2, and JAK3; assay: Kinase inhibition ELISA, summary over the studied protein kinases; format: biochemical, human; settings: primary screening, 10 μM test compound
Experimental: Study of inhibitory activity. The kinase activity was determined by enzyme-linked immunosorbent assay (ELISA) in polypropylene plates (Costar, 3363) in reaction buffer (20 mM HEPES, pH 7.5, 15 mM MgCl2, 2 mM DTT, 0.2 mM Na3VO4, 0.005% Triton X-100) for 60 min at 30 °C with vigorous stirring. The final concentration of the reaction components: 0.05 μg mL^–1 of the corresponding kinase, 5 nM Histon H3 biotinylated substrate (1–21) (Anaspec, 61702), 150 μM ATP (Sigma, A6419), 10 μM test compound, 5% DMSO. The enzymatic reaction was stopped with a buffer containing 20 mM HEPES (Sigma, H4034), pH 7.5, and 150 mM EDTA (Sigma, E5513). Further, to detect the phosphorylated substrate, the reaction mixture was transferred to pre-prepared plates (Nunc, 468667) coated with neutravidin (1 ng per well; Pierce, 31000) and treated with bovine serum albumin (BSA) to block non-specific binding sites. Incubation was carried out for 1 h at room temperature. […] The optical density of the solution was determined at λ = 450 nm using a tablet spectrophotometer (TECAN Safire). […]
as §4

Chain of JAK2 (O60674 whole entry): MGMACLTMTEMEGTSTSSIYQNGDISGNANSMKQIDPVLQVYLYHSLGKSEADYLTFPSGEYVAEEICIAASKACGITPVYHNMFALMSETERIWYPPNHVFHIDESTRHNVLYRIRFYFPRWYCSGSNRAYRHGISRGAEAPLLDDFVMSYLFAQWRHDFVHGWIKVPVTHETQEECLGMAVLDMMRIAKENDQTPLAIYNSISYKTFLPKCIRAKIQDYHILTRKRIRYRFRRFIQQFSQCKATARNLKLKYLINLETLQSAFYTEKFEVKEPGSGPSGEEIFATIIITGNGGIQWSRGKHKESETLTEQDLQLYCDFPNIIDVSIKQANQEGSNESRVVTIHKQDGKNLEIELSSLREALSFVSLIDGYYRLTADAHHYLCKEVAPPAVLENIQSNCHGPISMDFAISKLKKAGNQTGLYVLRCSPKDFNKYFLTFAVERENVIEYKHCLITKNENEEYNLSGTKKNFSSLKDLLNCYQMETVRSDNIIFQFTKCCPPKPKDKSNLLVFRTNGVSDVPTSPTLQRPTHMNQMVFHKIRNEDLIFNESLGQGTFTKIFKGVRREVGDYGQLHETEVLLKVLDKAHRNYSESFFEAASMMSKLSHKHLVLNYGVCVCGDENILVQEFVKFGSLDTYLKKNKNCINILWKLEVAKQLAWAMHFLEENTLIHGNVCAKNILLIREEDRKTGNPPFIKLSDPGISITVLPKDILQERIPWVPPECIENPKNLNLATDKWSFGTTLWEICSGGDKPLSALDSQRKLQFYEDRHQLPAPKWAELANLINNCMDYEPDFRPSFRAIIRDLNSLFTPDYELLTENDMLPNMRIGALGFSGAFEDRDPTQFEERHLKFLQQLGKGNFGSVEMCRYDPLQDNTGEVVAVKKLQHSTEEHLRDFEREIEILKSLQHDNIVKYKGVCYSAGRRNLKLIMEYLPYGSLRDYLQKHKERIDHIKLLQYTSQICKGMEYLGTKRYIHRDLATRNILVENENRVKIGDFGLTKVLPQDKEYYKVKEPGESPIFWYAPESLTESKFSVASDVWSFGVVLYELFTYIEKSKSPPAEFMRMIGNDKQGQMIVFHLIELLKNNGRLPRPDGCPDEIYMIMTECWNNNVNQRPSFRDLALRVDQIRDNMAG

| Compound | inhibition at 10 µM (JAK2) [%] | inhibition at 10 µM (cRAF[Y340D][Y341D]) [%] | inhibition at 10 µM (NPM1-ALK) [%] | melting point [°C] | inhibition at 10 µM (JAK3) [%] | inhibition at 10 µM (EGFR[L858R][T790]) [%] | inhibition at 10 µM (ALK) [%] | IC50 (cRAF[Y340D][Y341D]) [nM] | IC50 (JAK3) [nM] | IC50 (NPM1-ALK) [nM] | inhibitory activity against the studied protein kinases (in words) [1] |
| --- | --- | --- | --- | --- | --- | --- | --- | --- | --- | --- | --- |
| COc1ccc2c(c1)-c1c(ssc1=S)C(C)(C)N2C(=O)CN1C(=O)CCC1=O [2j, 1-[2-(8-Methoxy-4,4-dimethyl-1-thioxo-1,4-dihydro-5H-[1,2]dithiolo[3,4-c]quinolin-5-yl)-2-oxoethyl]pyrrolidine-2,5-dione] | 11 | 5 | 56 | 201 to 202 | 39 | 9 | 7 | – | – | – | – |
| CN1c2ccc(C(=S)N3CCN(c4ccccc4)CC3)cc2-c2c(ssc2=S)C1(C)C [2b, 4,4,5-Trimethyl-8-[(4-phenylpiperazin-1-yl)carbonothioyl]-4,5-dihydro-1H-[1,2]dithiolo[3,4-c]quinoline-1-thione] | 83 | 92 | 90 | – | 95 | 84 | 86 | – | 380 | 250 | – |
| CC1(C)c2ssc(=S)c2-c2cc(C(=S)N3CCCCC3)ccc2N1Cc1ccccc1 [2d, 5-Benzyl-4,4-dimethyl-8-(piperidin-1-ylcarbonothioyl)-4,5-dihydro-1H-[1,2]dithiolo[3,4-c]quinoline-1-thione] | 33 | 61 | 41 | – | 69 | 12 | 39 | – | – | – | – |
| CC1(C)c2ssc(=S)c2-c2cc(C(=S)N3CCOCC3)ccc2N1Cc1ccccc1 [2c, 5-Benzyl-4,4-dimethyl-8-(morpholin-4-ylcarbonothioyl)-4,5-dihydro-1H-[1,2]dithiolo[3,4-c]quinoline-1-thione] | 76 | 93 | 75 | – | 95 | 88 | 77 | 780 | 410 | – | – |
| CN1c2ccc(C(=S)N3CCOCC3)cc2-c2c(ssc2=S)C1(C)C [2a, 4,4,5-Trimethyl-8-(morpholin-4-ylcarbonothioyl)-4,5-dihydro-1H-[1,2]dithiolo[3,4-c]quinoline-1-thione] | 81 | 93 | 87 | 106 to 107 | 96 | 82 | 84 | 6570 | 360 | 540 | – |
| COc1ccc2c(c1)-c1c(ssc1=S)C(C)(C)N2C(=O)CN1C(=O)C2CCCCC2C1=O (stereo not shown) [2k, 2-[2-(8-Methoxy-4,4-dimethyl-1-thioxo-1,4-dihydro-5H-[1,2]dithiolo[3,4-c]quinolin-5-yl)-2-oxoethyl]hexahydro-1H-isoindole-1,3(2H)-dione] | 3 | 41 | 27 | 205 to 206 | 26 | -2 | 18 | – | – | – | very low activity |
| CC1(C)c2ssc(=S)c2-c2cc3c(cc2N1C(=O)c1ccccc1F)OCCO3 [2m, 5-(2-Fluorobenzoyl)-4,4-dimethyl-4,5,8,9-tetrahydro-1H-[1,4]dioxino[2,3-g][1,2]dithiolo[3,4-c]quinoline-1-thione] | 1 | 35 | 6 | 234 to 235 | 23 | 10 | -4 | – | – | – | very low activity |

Further lines, results first:

| inhibition at 10 µM (JAK2) [%] | inhibition at 10 µM (cRAF[Y340D][Y341D]) [%] | inhibition at 10 µM (NPM1-ALK) [%] | melting point [°C] | inhibition at 10 µM (JAK3) [%] | inhibition at 10 µM (EGFR[L858R][T790]) [%] | inhibition at 10 µM (ALK) [%] | IC50 (cRAF[Y340D][Y341D]) [nM] | IC50 (JAK3) [nM] | IC50 (NPM1-ALK) [nM] | inhibitory activity against the studied protein kinases (in words) [1] | Compound |
| --- | --- | --- | --- | --- | --- | --- | --- | --- | --- | --- | --- |
| 9 | 92 | 36 | 195 to 196 | 99 | 71 | 51 | 5340 | 460 | – | – | COc1cccc(N=c2ssc3c2-c2cccc4c2N(C(=O)C4=O)C3(C)C)c1 [2q, 10-[(3-Methoxyphenyl)imino]-7,7-dimethyl-7,10-dihydro[1,2]dithiolo[3,4-c]pyrrolo[3,2,1-ij]quinoline-4,5-dione] |
| 53 | 81 | 67 | 218 to 219 | 86 | 24 | 75 | – | – | – | – | COc1ccc2c(c1)N(C(=O)c1sc3ccccc3c1Cl)C(C)(C)c1ssc(=S)c1-2 [2l, 5-[(3-Chloro-1-benzothien-2-yl)carbonyl]-7-methoxy-4,4-dimethyl-4,5-dihydro-1H-[1,2]dithiolo[3,4-c]quinoline-1-thione] |
| 10 | 44 | 42 | 238 to 239 | 36 | 27 | 49 | – | – | – | – | CC1(C)Nc2cc3c(cc2-c2c1ssc2=S)OCCO3 [2h, 4,4-dimethyl-4,5,8,9-tetrahydro-1H-[1,4]dioxino[2,3-g][1,2]dithiolo[3,4-c]quinoline-1-thione] |
| 64 | 76 | 77 | 158 to 159 | 89 | 24 | 81 | – | – | – | – | COc1ccc2c(c1)-c1c(ssc1=S)C(C)(C)N2C(=O)c1cccs1 [2i, 8-Methoxy-4,4-dimethyl-5-(2-thienylcarbonyl)-4,5-dihydro-1H-[1,2]dithiolo[3,4-c]quinoline-1-thione] |
